Experimental data published in ChEMBL document CHEMBL1201862, “PubChem BioAssay data set” (2004).
The source made the active and inactive calls.

Columns and labels:
[1] = molecular target: T1, Zinc finger protein mex-5 (Caenorhabditis elegans, UniProt Q9XUB2); assay: potency of MEX-5 RNA-binding blockers – biochemical, C. elegans, fluorescence polarization, dose response (AID 1960)
T1 sequence (Q9XUB2 whole entry): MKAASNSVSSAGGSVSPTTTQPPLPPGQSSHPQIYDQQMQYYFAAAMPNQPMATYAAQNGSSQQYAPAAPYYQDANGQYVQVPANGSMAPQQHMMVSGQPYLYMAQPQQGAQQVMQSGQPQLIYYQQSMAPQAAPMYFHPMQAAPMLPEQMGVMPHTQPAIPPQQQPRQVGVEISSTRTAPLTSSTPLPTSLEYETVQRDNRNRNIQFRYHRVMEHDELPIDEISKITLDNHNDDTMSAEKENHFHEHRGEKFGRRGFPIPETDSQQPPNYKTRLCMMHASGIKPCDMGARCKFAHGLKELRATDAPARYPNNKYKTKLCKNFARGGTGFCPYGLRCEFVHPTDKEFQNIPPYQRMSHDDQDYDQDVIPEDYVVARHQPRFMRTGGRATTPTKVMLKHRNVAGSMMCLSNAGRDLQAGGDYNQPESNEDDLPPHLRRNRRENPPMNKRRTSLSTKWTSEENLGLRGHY

[2] = test system: Vero; assay: cells; assay type: functional; conditions: Chlorocebus sabaeus
[3] = cells; assay type: functional
[4] = molecular target: T2, RNA-binding protein pos-1 (Caenorhabditis elegans, UniProt G5EF15); assay: disruptors of C. elegans POS-1 RNA interaction – biochemical, fluorescence polarization, dose response (AID 1964);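 also: purified POS-1 fused to maltose binding protein made in E. coli; potency of compounds blocking POS-1 binding to fluorescent RNA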
T2 sequence (G5EF15 whole entry): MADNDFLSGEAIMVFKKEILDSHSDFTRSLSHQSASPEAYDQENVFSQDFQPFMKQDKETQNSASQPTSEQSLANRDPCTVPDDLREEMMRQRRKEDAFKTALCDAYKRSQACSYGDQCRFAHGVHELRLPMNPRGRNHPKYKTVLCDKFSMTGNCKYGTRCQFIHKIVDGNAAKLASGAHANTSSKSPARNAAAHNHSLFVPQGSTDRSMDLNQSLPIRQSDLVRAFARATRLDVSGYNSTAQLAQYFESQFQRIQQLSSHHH

[5] = molecular target: T3, Heat shock factor protein 1 (Mus musculus, UniProt P38532); assay: enhancement of HSF1-driven luciferase signal – cell-based, NIH3T3, luminescence, dose retest, confirmation (AID 435004); assay type: functional;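 also: stress induced by proteasome inhibitor MG132 added 30 min after compound; luciferase reporter driven by HSF1 response element in NIH3T3 cells; actives raise luminescence as potentiators of the MG132 stress response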
T3 sequence (P38532 whole entry): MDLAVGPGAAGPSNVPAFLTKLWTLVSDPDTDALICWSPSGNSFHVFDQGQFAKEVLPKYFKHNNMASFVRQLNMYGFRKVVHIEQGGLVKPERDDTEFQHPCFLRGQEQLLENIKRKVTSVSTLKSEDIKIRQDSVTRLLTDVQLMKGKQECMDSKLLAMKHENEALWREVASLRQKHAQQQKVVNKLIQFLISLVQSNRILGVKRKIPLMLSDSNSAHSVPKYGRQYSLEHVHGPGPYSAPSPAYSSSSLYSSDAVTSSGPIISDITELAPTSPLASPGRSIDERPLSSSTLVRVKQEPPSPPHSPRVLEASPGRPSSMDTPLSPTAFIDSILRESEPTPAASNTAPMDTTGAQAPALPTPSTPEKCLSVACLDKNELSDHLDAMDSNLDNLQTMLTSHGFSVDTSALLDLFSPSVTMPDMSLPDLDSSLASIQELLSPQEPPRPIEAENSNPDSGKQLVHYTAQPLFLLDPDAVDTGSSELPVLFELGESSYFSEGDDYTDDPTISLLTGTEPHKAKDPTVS

[6] = molecular target: NS3 (Hepatitis C virus, UniProt A3EZJ3); assay: PubChem AID 2173; set-up: species or system Hepacivirus hominis
NS3, sequence (A3EZJ3 whole entry): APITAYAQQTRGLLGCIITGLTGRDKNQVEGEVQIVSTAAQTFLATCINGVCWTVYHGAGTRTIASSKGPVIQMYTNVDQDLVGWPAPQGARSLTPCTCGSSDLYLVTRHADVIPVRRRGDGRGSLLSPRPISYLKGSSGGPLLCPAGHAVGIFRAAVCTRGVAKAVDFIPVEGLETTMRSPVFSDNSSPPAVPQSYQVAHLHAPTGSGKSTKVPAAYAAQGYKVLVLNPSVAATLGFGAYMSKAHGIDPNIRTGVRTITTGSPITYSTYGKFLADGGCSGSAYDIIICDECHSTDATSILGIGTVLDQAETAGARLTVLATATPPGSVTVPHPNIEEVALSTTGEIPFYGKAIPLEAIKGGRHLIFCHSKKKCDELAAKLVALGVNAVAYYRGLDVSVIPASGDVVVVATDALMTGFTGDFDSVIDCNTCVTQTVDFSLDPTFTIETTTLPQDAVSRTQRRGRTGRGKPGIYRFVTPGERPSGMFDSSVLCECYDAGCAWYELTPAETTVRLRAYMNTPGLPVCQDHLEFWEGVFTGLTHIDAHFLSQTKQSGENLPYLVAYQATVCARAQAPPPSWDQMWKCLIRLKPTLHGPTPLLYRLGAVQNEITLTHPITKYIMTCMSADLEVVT

[7] = THP-1 cell cytotoxicity, dose response, cytotoxicity control for non-replicating M. tuberculosis project (AID 489025); assay type: functional
[8] = molecular target: Procathepsin L (Homo sapiens, UniProt P07711)
Procathepsin L, sequence (P07711 whole entry): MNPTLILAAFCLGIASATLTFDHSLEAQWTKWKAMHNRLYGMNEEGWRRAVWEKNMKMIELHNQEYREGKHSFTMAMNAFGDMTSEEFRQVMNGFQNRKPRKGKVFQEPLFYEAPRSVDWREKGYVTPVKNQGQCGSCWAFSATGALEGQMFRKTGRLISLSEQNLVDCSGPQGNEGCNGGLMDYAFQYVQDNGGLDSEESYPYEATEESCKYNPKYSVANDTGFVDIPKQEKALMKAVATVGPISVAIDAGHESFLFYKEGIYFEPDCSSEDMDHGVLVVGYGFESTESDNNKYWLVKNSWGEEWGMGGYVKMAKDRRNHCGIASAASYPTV

[9] = molecular target: T4, Mannose-6-phosphate isomerase (Homo sapiens, UniProt P34949); assay: MPI enzyme activity inhibition – biochemical, fluorescence intensity, coupled assay, primary screen (AID 1209)
T4 sequence (P34949 whole entry): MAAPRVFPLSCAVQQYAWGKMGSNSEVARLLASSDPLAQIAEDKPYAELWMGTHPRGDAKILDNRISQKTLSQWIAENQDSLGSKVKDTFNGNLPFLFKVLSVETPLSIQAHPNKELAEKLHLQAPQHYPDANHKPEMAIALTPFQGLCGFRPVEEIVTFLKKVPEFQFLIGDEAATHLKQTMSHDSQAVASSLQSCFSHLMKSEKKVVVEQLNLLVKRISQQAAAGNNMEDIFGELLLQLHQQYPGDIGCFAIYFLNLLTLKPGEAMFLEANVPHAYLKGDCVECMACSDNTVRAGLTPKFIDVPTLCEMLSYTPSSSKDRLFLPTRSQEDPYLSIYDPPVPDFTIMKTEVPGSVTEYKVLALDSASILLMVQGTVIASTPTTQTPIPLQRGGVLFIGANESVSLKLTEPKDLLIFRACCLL

[10] = molecular target: T4, Mannose-6-phosphate isomerase; assay: MPI inhibition at elevated mannose 6-phosphate – biochemical, fluorescence intensity, high mannose 6-phosphate, primary screen (AID 1220)
[11] = molecular target: Aspartyl aminopeptidase (Plasmodium falciparum 3D7, UniProt Q8I2J3)
Aspartyl aminopeptidase, sequence (Q8I2J3 whole entry): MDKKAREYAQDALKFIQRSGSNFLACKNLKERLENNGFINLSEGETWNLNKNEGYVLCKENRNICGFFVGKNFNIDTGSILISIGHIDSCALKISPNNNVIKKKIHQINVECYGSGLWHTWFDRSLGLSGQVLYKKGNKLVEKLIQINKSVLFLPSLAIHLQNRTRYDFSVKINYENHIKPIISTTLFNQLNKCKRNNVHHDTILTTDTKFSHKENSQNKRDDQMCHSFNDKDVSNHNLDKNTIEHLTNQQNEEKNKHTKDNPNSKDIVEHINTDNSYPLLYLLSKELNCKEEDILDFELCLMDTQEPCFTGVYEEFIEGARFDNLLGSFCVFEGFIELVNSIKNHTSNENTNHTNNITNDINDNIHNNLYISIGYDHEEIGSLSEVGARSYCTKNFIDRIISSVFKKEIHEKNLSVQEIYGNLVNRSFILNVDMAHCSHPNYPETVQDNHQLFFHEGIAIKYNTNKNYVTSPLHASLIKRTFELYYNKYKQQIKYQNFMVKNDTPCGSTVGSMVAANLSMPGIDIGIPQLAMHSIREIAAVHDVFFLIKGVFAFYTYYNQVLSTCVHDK

[12] = molecular target: T5, Alkaline phosphatase, tissue-nonspecific isozyme (Homo sapiens, UniProt P05186)
T5 sequence (P05186 whole entry): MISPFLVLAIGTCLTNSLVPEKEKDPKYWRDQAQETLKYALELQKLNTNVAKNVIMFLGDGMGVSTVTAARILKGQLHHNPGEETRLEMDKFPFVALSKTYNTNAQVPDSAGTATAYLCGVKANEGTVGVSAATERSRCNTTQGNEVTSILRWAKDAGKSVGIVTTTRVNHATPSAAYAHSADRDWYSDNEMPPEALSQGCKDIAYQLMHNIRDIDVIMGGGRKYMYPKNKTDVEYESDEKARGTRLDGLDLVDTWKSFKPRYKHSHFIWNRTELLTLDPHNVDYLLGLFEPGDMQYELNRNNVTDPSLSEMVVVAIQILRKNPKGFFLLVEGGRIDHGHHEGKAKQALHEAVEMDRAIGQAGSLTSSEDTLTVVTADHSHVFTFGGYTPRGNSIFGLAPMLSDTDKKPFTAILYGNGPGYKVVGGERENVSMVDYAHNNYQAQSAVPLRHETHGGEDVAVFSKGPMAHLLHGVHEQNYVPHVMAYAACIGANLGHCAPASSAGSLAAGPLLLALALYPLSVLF

**Q.** Which results are given for `COc1ccc(N2C(=O)NC(=O)/C(=C/c3ccc([N+](=O)[O-])s3)C2=O)cc1`?
**A.** EC50 [1]: 24.3 µM (active); CC50 [2]: > 25 µM (active); IC50 [3]: 26.7 µM (active); EC50 [4]: > 300 µM (not active); EC50 [5]: 8.55 µM (active); IC50 [6]: 9.42 µM (active); CC50 [7]: 38.5 µM (active)

**Q.** Which IC50 [8] does the source give for `CCOC(=O)NC1(Nc2ccc(C)cc2)Oc2ccccc2O1` here?
**A.** > 59.6 µM (not active)

**Q.** What about the IC50 [9] of the same compound?
**A.** > 50 µM (not active)

**Q.** And the IC50 [10]?
**A.** > 50 µM (not active)

**Q.** What about the IC50 [11] of the same compound?
**A.** 5.07 µM (active)

**Q.** Which EC50 [12] does the source give for `O=C1CC(N2CCN(c3cccc(C(F)(F)F)c3)CC2)C(=O)N1c1ccc(F)cc1` (configuration not stated) here?
**A.** > 100 µM (not active)
